Results taken from US20230203440A1, “AXIAL STEM CELLS, METHODS OF PRODUCING AND USES THEREOF” (HELMHOLTZ ZENTRUM MUNCHEN - DEUTSCHES FORSCHUNGSZENTRUM FUR …, priority 2020, published 2023).

Assays:
[1] = tested on: hESCs; assay: Continuous CHIR99021 treatment of hESCs (time course, qPCR and RNA-seq); format: cell-based, human; conditions: continuous 10 μM treatment of hESCs, compared to transient activation for 24 hours
Procedure: In time course experiments cells were dissociated using Accutase (Sigma) and seeded into 12-well plates at 2.5×10^5 cells per well in mTesR1 medium supplemented with 10 μM Y-27632 (R&D). 24 hours later medium was replaced with differentiation medium: RPMI-1640 with L-Glutamine and 1× B-27 supplement without insulin containing 10 μM CHIR99021 (Tocris). In case of beta-catenin overexpression, the procedure was the same, except that CHIR99021 was replaced with 1 μg/ml doxycycline (Clontech). All cell culture media components were from Life Technologies unless indicated otherwise.
Total RNA was isolated using RNeasy mini kit (Qiagen). cDNA was synthesized from 0.2-1 μg of total RNA (normalized amount between samples within each experiment) using Verso cDNA synthesis kit (Thermo Scientific) according to manufacturers instructions. […] Relative fold changes (FC) in gene expression were calculated using ΔΔCt method (Livak and Schmittgen, 2001). […]
3 μg of total RNA were treated with TURBO DNase (Life Technologies) and purified using RNeasy Minelute RNA cleanup kit (Qiagen). RNA quality was assessed using microcapillary electrophoresis on Agilent 2100 Bioanalyzer with RNA Pico 6000 kit (Agilent) and only RNA with RIN values >8 was processed further. […] The quality of the libraries was assessed using Agilent 2100 Bioanalyzer with the DNA 1000 kit (Agilent). […] Sequencing depth was 12-14 Mio reads per sample. […]

[2] = tested on: H9 hESC line; assay: Axial stem cell derivation from hESCs by serial passaging in maintenance medium with ligands; format: cell-based, human; conditions: for derivation of stable lines on addition of the ligand: added to maintenance medium
Procedure: (§1) Cells were seeded as described above and treated with 10 μM CHIR for 24 hours. Afterwards cells were split at 1:20-1:30 ratio into Matrigel-coated 6-well plates containing maintenance medium (RPMI-1640 supplemented with L-Glutamine, 1× non-essential amino acids, 1× B-27 supplement without vitamin A and the respective ligands (see Table 1) and the cultures were incubated until they became confluent. Confluent cultures were routinely split at 1:10-1:20 ratio until the end of establishment phase defined at passage 9. Splitting was done with either Passaging solution XF or Versene (Life Technologies). FGF2-containing medium was prepared freshly every week, the media without FGF2—at least every 2 weeks. No manual colony picking or scraping off the differentiated cells was employed at any stage during the establishment of cell lines.
Total RNA was isolated using RNeasy mini kit (Qiagen). cDNA was synthesized from 0.2-1 μg of total RNA (normalized amount between samples within each experiment) using Verso cDNA synthesis kit (Thermo Scientific) according to manufacturers instructions. 1 μl of cDNA (1:5 dilutions) were used as template in 10 μl qPCR reactions. PCR was set up using either pre-designed Taqman Gene Expression Assays together with Taqman Gene Expression Master Mix (both from Thermo Scientific) or custom-designed primers together with Power SYBR Green master mix (Thermo Scientific). All primer and Taqman probe details are listed in, e.g., Table 2. Primer concentration in the reactions was 250 nM for all primers. PCR was performed on QuantStudio 12K Flex Real-Time PCR System (Thermo Scientific) using pre-defined cycling parameters. 2 technical replicates were run for each reaction. Taqman assays and primers used are listed in, e.g., Table 2. GAPDH served as a housekeeping gene in all experiments. Relative fold changes (FC) in gene expression were calculated using ΔΔCt method (Livak and Schmittgen, 2001). Results are presented as mean ΔΔCt±standard error of the mean between biological replicates, unless indicated otherwise. Plots were produced using ggplot2 package (Wickham, 2009) in RStudio software running R version 3.5.1 (R Core Team, 2018).
For immunofluorescent analysis, cells were seeded onto either matrigel-coated glass coverslips or into matrigel-coated 4-well μ-slides (Ibidi). For IF on differentiated motor neurons, AxCS lines were differentiated directly on the coverslips. […] Primary antibody dilutions (e.g., Table 3) in the blocking buffer were added and incubated overnight at 4° C. Next day, cells were washed with PBS 3 times and incubated with secondary antibodies diluted in PBS for 1 hours at RT. Coverslips were mounted using ProLong Gold mounting reagent with DAPI. Images were obtained at 63× magnification using Zeiss Axio Observer.Z1 epifluorescent microscope equipped with Apotome.2 and Zen software (Zeiss).

[3] = tested on: human iPSC line HMGU #1; assay: Axial stem cell derivation from human iPS cell line; format: cell-based; conditions: 10 μM CHIR99021 with inhibition of TGF-β, human iPSCs
Procedure: as §1, with “FIG. 6: A) Schematic of axial stem cell derivation from human iPS cell line (HMGU #1). μM concentrations refer to CHIR99021. […] B) Quantitative qPCR analysis of marker gene expression in iPS-derived axial stem cell lines at passage 9. Expression is normalized to GAPDH and plotted as log2 fold change over undifferentiated parental iPS cell line. Error bars represent standard error of the mean between biological replicates (derivations). n=1 to 6. Cells” for “Cells”

Molecule: Cc1c[nH]c(-c2cnc(NCCNc3ccc(C#N)cn3)nc2-c2ccc(Cl)cc2Cl)n1 [CHIR99021]
- TBXT expression [1]: sustained high level of TBXT
- marker expression of derived cell lines ([2]; 5 μM CHIR99021 alone): high levels of SOX2 in conjunction with PAX6, but no T, CDX2, MIXL1 or EOMES
- marker expression of derived cell lines ([2]; 5 μM CHIR99021 with FGF2): high levels of SOX2, TBXT, CDX2, MIXL1, EOMES and very low level or no PAX6
- marker expression of derived cell lines ([2]; 7.5 μM CHIR99021): intermediate levels of TXBT and PAX6
- toxicity to conversion ([2]; 10 μM CHIR99021, hESC): toxic to hESC conversion
- derivation of cell lines ([2]; 5 or 7.5 μM CHIR99021, presence or absence of FGF2, hESCs): enabled the derivation of lines that exhibited compact stem cell colony morphology
- derivation of cell lines ([2]; CHIR99021 lower than 5 μM): did not promote the formation of cell lines
- SOX2 expression of passaged progeny ([2]; passaging beginning at 24 hours, in presence of CHIR99021): stably expressing SOX2 at a comparable level to undifferentiated hESCs
- derivation of axial cell lines [3]: permissive for the derivation of SOX2/TXBT axial cell lines

Molecule: NC(=O)c1ccc(-c2nc(-c3ccc4c(c3)OCO4)c(-c3ccccn3)[nH]2)cc1 [SB-431542]
- spontaneous differentiation and colony compactness of the stem cell lines ([2]; TGF-β inhibition): reduced spontaneous differentiation and maintained the lines as more compact colonies
- cell and colony morphology of derived lines ([2]; TGF-β inhibitor applied to maintenance medium): created more compact cells and denser colonies

Molecule: FGF2
- sustained TBXT expression on passaging ([2]; passaging in presence of CHIR99021 with or without FGF2): sustained expression required the presence of FGF2

Molecule: TGF-β: Human recombinant TGF-β1 (Peprotech)
- derivation of stable lines on addition of the ligand [2]: prohibited the deviation of stable lines altogether

B1: BMP4: Human recombinant BMP4 (R&D Systems) (protein, UniProt P12644 293-408, looked up)
Bone morphogenetic protein 4: SPKHHSQRARKKNKNCRRHSLYVDFSDVGWNDWIVAPPGYQAFYCHGDCPFPLADHLNSTNHAIVQTLVNSVNSSIPKACCVPTELSAISMLYLDEYDKVVLKNYQEMVVEGCGCR
- derivation of stable lines on addition of the ligand [2]: prohibited the deviation of stable lines altogether
